The values below come from publication PMC3983353 (Journal of Medicinal Chemistry, 2014).

Broadly, the EC50 is the concentration at which the effect is half-maximal.

Test [1] deals with metastatic melanoma A375 cell line. The following applies: read-out: EC50 in A375 cells; cited from earlier work.
In test [2] the test system is Sk-Mel28 cells. The following applies: read-out: EC50 in Sk-Mel28 cells; cited from earlier work.
In test [3] the target is rat nNOS (Rattus norvegicus, UniProt P29476).
rat nNOS, sequence (P29476 whole entry): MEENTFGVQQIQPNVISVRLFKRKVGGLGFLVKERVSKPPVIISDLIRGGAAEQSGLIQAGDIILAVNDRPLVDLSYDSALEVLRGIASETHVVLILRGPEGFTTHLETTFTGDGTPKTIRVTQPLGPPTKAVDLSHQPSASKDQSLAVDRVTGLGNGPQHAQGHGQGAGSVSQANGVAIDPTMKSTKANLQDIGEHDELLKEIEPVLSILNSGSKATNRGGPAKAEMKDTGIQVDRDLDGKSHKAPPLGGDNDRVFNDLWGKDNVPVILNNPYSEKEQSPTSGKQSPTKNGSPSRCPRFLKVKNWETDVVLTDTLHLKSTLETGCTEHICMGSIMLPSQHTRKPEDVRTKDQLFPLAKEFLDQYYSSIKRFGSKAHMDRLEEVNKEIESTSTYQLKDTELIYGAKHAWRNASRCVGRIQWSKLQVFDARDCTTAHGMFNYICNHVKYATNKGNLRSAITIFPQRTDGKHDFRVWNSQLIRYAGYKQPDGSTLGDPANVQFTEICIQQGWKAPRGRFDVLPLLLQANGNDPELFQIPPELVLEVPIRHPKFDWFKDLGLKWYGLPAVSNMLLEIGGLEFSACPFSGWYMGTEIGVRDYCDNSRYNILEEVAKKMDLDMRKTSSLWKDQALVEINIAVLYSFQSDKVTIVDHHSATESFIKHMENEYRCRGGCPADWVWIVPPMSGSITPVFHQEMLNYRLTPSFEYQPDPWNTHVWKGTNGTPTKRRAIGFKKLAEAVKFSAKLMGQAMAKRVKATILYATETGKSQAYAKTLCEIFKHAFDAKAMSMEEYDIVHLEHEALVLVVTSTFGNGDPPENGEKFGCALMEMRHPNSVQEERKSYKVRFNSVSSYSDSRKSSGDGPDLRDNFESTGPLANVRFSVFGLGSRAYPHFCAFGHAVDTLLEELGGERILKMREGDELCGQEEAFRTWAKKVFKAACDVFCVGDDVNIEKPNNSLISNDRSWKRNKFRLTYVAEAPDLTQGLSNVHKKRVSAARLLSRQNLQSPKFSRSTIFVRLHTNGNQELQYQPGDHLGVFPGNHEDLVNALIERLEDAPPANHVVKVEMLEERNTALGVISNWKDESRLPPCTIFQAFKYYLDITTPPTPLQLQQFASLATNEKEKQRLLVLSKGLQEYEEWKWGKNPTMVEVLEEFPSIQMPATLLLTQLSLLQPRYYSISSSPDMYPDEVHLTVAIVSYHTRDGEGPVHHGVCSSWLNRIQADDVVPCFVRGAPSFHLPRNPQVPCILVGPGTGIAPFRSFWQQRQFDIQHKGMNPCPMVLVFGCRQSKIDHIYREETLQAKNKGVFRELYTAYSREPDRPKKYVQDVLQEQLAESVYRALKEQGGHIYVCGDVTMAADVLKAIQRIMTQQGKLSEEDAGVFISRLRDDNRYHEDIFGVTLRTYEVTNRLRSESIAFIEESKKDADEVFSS
Test [4] has as its system immortalized melanocytes. To be noted: cannot calculate = toxic even at lower concentration and no dose–activity curve occurred.

`N.N.[Cl][Pt][Cl]` [cisplatin]: the half-maximal effective concentration (EC50) in test [1] is 4.2 µM; in test [2], 14.3 µM.
Turning to `N=C(Nc1cccc(OCCCOc2cccc(NC(=N)c3cccs3)c2)c1)c1cccs1` [compound 12, N,N′-((Propane-1,3-diylbis(oxy))bis(3,1-phenylene))bis(thiophene-2-carboximidamide)], the “lower nNOS potency than 11” value in test [3] amounted to 2 fold.
Regarding `N=C(Nc1cccc(CCNCc2cccc(NC(=N)c3cccs3)c2)c1)c1cccs1` [compound 13, N-(3-(2-((3-(Thiophene-2-carboximidamido)benzyl)amino)ethyl)phenyl)thiophene-2-carboximidamide], in test [4], the EC50 immortalized melanocytes entry was “cannot calculate ^b”.
Take `CCN(CCc1cccc(F)c1)Cc1cccc(NC(=N)c2cccs2)c1` [compound 17, N-(3-((Ethyl(3-fluorophenethyl)amino)methyl)phenyl)thiophene-2-carboximidamide]: the “lower nNOS potency than 16” value in test [3] was around 7 fold.
